Measurements from PMC9151520 (Archives of Toxicology, 2022).
Values joined by “and” are separate entries in the source; they are usually repeats but may differ in a detail not shown here. Identical values can stand only once. Like-named read-outs stand apart in the source and are kept apart here.

Legend:
[1] = system: p53 signaling (p53RE-bla HCT-116 cells); experiment: cells; format: cell-based
[2] = system: p53 signaling (p53RE-bla HCT-116 cells)
[3] = system: p53RE-bla HCT-116 cells
[4] = system: p53 signaling (p53RE-bla HCT-116 cells); remark: listed apart in the source
[5] = read-out: p53 activation EC50, cherry pick confirmation
[6] = read-out: p53 activation EC50, primary screening
[7] = Homo sapiens, HCT-116, read-out: EC50, p53 activation, primary screening
[8] = Homo sapiens, HCT-116, read-out: Efficacy, p53 activation, primary screening
[9] = Homo sapiens, HCT-116, read-out: p53 activation EC50, cherry pick confirmation
[10] = Homo sapiens, HCT-116, read-out: p53 activation EC50, primary screening
[11] = Homo sapiens, HCT-116, read-out: p53 activation efficacy, cherry pick confirmation
[12] = Homo sapiens, HCT-116, read-out: p53 activation efficacy, primary screening

SMILES | p53 activation efficacy, cherry pick confirmation [1] | p53 activation efficacy, primary screening [1] | EC50 [1, 5] | EC50 [1, 6] | p53 activation EC50, cherry pick confirmation [2] | p53 activation EC50, primary screening [2] | p53 activation efficacy, cherry pick confirmation [2] | p53 activation efficacy, primary screening [2] | Viability EC50, cherry pick confirmation [3] | Viability EC50, primary screening [3] | Viability efficacy, cherry pick confirmation [3] | Viability efficacy, primary screening [3] | p53 activation EC50, cherry pick confirmation [4] | p53 activation EC50, primary screening [4] | p53 activation efficacy, cherry pick confirmation [4] | p53 activation efficacy, primary screening [4] | Efficacy, p53 activation, cherry pick confirmation [1] | EC50, p53 activation, cherry pick confirmation [2] | EC50, p53 activation, primary screening [2] | Efficacy, p53 activation, cherry pick confirmation [2] | further results
CCCCNC(=O)OCC#CI [3-Iodo-2-propynyl-N-butylcarbamate] | 104.439 | 78.699 | 34.4 µM | 47.6 µM | inactive | inactive | inactive | inactive | inactive | inactive | inactive | inactive | inactive | inactive | inactive | inactive |  |  |  |  | 
Oc1ccc(C2(c3ccc(O)cc3)c3ccccc3-c3ccccc32)cc1 [4,4'-(9H-Fluorene-9,9-diyl)diphenol] | 169.95 | 157.361 | 44.8 µM | 47.6 µM | inactive | inactive | inactive | inactive |  | inactive |  |  | inactive | inactive | inactive | inactive |  |  |  |  | EC50 ([3]; read-out: Viability EC50, cherry pick confirmation): 34.3 µM and 32.4 µM and 45.8 µM; EC50 ([3]; read-out: Viability EC50, primary screening): 49.5 µM
Oc1ccc(-c2ccc(O)cc2)cc1 [4,4'-Biphenyldiol] |  |  |  |  |  |  |  |  |  |  |  |  |  |  |  |  | inactive | inactive | inactive | inactive | EC50, p53 activation, cherry pick confirmation [1]: inactive; EC50 [1, 7]: 35.4 µM; Emax [1, 8]: 48.2%; Efficacy, p53 activation, primary screening [2]: inactive; EC50, viability, cherry pick confirmation [3]: inactive; EC50, viability, primary screening [3]: inactive; Efficacy, viability, cherry pick confirmation [3]: inactive; Efficacy, viability, primary screening [3]: inactive; EC50, p53 activation, cherry pick confirmation [4]: inactive; EC50, p53 activation, primary screening [4]: inactive; Efficacy, p53 activation, cherry pick confirmation [4]: inactive; Efficacy, p53 activation, primary screening [4]: inactive
Oc1ccc(OCc2ccccc2)cc1 [4-(Benzyloxyl)phenol] |  |  |  |  | inactive | inactive | inactive | inactive | inactive | inactive | inactive | inactive | inactive | inactive | inactive | inactive |  |  |  |  | EC50 [1, 9]: 14 µM; EC50 [1, 10]: 18.6 µM; Emax [1, 11]: 39%; Emax [1, 12]: 33.5%
c1cc(N(CC2CO2)CC2CO2)ccc1OCC1CO1 (centres unmarked) [4-(Diglycidylamino)phenyl glycidyl ether] | 85.4543 | 57.856 | 23.5 µM | 27.3 µM | inactive | inactive | inactive | inactive | inactive | inactive | inactive | inactive | inactive | inactive | inactive | inactive |  |  |  |  | 
Oc1ccc(Oc2ccccc2)cc1 [4-Phenoxyphenol] |  |  |  |  |  |  |  |  |  |  |  |  |  |  |  |  | inactive | inactive | inactive | inactive | EC50, p53 activation, cherry pick confirmation [1]: inactive; EC50 [1, 7]: 25.6 µM; Emax [1, 8]: 32.4%; Efficacy, p53 activation, primary screening [2]: inactive; EC50, viability, cherry pick confirmation [3]: inactive; EC50, viability, primary screening [3]: inactive; Efficacy, viability, cherry pick confirmation [3]: inactive; Efficacy, viability, primary screening [3]: inactive; EC50, p53 activation, cherry pick confirmation [4]: inactive; EC50, p53 activation, primary screening [4]: inactive; Efficacy, p53 activation, cherry pick confirmation [4]: inactive; Efficacy, p53 activation, primary screening [4]: inactive
Nc1ncn([C@@H]2O[C@H](CO)[C@@H](O)[C@H]2O)c(=O)n1 [5-Azacytidine] | 71.649 | 59.244 | 17.7 µM | 11.2 µM | inactive | inactive | inactive | inactive | inactive | inactive | inactive | inactive | inactive | inactive | inactive | inactive |  |  |  |  | 
Nc1cnn([C@@H]2O[C@H](CO)[C@@H](O)[C@H]2O)c(=O)n1 [6-Azacytidine] |  |  |  |  |  |  |  |  |  |  |  |  |  |  |  |  | 68.68 | inactive | inactive | inactive | Efficacy, p53 activation, primary screening [1]: 56.623; EC50 ([1]; read-out: EC50, p53 activation, cherry pick confirmation): 1.1 µM; EC50 ([1]; read-out: EC50, p53 activation, primary screening): 0.807 µM; Efficacy, p53 activation, primary screening [2]: inactive; EC50, viability, cherry pick confirmation [3]: inactive; EC50, viability, primary screening [3]: inactive; Efficacy, viability, cherry pick confirmation [3]: inactive; Efficacy, viability, primary screening [3]: inactive; EC50, p53 activation, cherry pick confirmation [4]: inactive; EC50, p53 activation, primary screening [4]: inactive; Efficacy, p53 activation, cherry pick confirmation [4]: inactive; Efficacy, p53 activation, primary screening [4]: inactive
CC(=O)OC[C@H]1O[C@@H](n2ncc(=O)[nH]c2=O)[C@H](OC(C)=O)[C@@H]1OC(C)=O [6-Azaribine] |  |  |  |  | inactive | inactive | inactive | inactive | inactive | inactive | inactive | inactive | inactive | inactive | inactive | inactive |  |  |  |  | EC50 [1, 9]: 0.603 µM; EC50 [1, 10]: 0.432 µM; Emax [1, 11]: 79.7%; Emax [1, 12]: 60.2%
